Data set [1] deals with newly transformed schistosomula (NTS). Description: NTS viability phenotypic screening, 72 h. Particulars: for IC50: Schistosoma mansoni, read-out: IC50 (NTS viability).
Data set [2] concerns the target T1, human LSD1-CoREST complex (Homo sapiens, UniProt O60341).
T1 construct: made in house
The data set is described as follows: HRP-coupled LSD1 inhibition assay. To be noted: 10 min preincubation; for IC50: read-out: IC50 (hLSD1 direct inhibition). The class given is biochemical. On the procedure: Protein expression, thermal stability, and inhibition of human LSD1-CoREST were performed using established protocols. […] The reaction was initiated by adding an equal volume of the substrate solution to the enzyme–inhibitor mixture, and resorufin fluorescence (excitation at 530–570 nm and emission at 580–590 nm) was detected with a Clariostar plate reader.

For data set [3], the target named is T1, human LSD1-CoREST complex. Description: ThermoFAD thermal stability assay. The class given is binding. To be noted: LSD1-CoREST thermal stability. On the procedure:
Compounds 14–22 were tested against the human LSD1-CoREST complex to determine their inhibitory activity. […] ThermoFAD assays were then performed to assess the impact of 14–22 on the thermal stability (ΔT m values, Table ) of the LSD1-CoREST complex. The most significant shifts in Tm values corresponded to the strongest binders. […] Compound 22 was not tested, considering its previous negative results.
Protein expression, thermal stability, and inhibition of human LSD1-CoREST were performed using established protocols. […] LSD1-CoREST (0.4 μM) was preincubated with the inhibitor at 25 °C for 10 min in the presence of 5% DMSO. The reaction was initiated by adding an equal volume of the substrate solution to the enzyme–inhibitor mixture, and resorufin fluorescence (excitation at 530–570 nm and emission at 580–590 nm) was detected with a Clariostar plate reader.

Data set [4] is described as follows: MTT cytotoxicity in MRC-5 cells. The format is cell-based. To be noted: human, MRC-5 lung diploid fibroblast cells. On the procedure: (§1) The MTT method was used to evaluate cell viability after 72 h of treatment.
(§2) Human commercial lung diploid fibroblasts (MRC-5), and diploid retinal epithelium cells (RPE) were obtained from the American Type Culture Collection (ATCC) and kindly provided by Dr Francesca Degrassi (CNR IBPM) and maintained in minimal essential medium or DMEM-F12 medium supplemented with fetal calf serum, antibiotics, and nonessential amino acids. Cells were grown at 37 °C, in a humidified atmosphere, with 5% CO2. For experiments, cells were seeded in 200 μL of complete in each well of a 96-well microtiter plate. After 24 h, compounds were added at 5, 10, 25, and 50 μM for 72 h in sextuplicate. MTT was added (0.5 mg/mL), incubated for 4 h at 37 °C, and dissolved in 200 μL of isopropyl alcohol. Absorbance was measured at 570 nm (ELISA reader, DASIT), and cell viability was calculated as viability=(ODoftreatedcells/ODofcontrolcells)×100

Data set [5] in a line: MTT cytotoxicity in RPE cells. The class given is cell-based. To be noted: human, retinal pigment epithelial (RPE) cells. Here is the method:
as §1, §2

For data set [6], the system named is adult worms. The data set is described as follows: Adult worm viability phenotypic assay, 72 h. Particulars: Schistosoma mansoni, read-out: IC50 (adult worm viability).
Procedure: The life cycle is maintained at the Swiss TPH as described previously. Cercariae were obtained from infected snails by exposing them to a strong light source for 3–4 h in pond water.
For NTS and adult worms, transparent flat-bottom 96- and 24-well plates were used, respectively (Sarstedt, Switzerland). For juvenile worms, 48-well plates were used with 3–6 worms per plate and RPMI medium with 5% FCS and 1% penicillin/streptomycin. Compounds were initially tested at 20 and 10 μM in triplicate on NTS and repeated once; each well contained 30–40 NTS. Phenotypic reference points such as motility, morphology, and granularity were used to score incubated parasites’ overall viability (scores from 0 to 3). […] Identified hits from the NTS screening were tested on adult worms. […] The experiment was conducted in duplicate and repeated; standard deviations were calculated from two wells. […] For all in vitro assays, negative controls (DMSO at the highest tested concentration) were included.
Data set [7] relates to NTS. The data set is described as follows: Speed-of-action assay in NTS. Particulars: for Percentage of effect: NTS; for IC50: Schistosoma mansoni, read-out: IC50 (speed of action, NTS). The format is cell-based, Schistosoma mansoni. An excerpt: (§3) To better characterize a selection of our LSD1i in vitro, we assessed the onset of their action, defined as the time required for an observable antischistosomal effect. […] For detailed percentages of activity at each time point, refer to the Supporting Information (Tables S2 and S3 in Supporting Information).

Data set [8] deals with adult worms. Description: Pairing and egg laying of adult worms. The format is cell-based, Schistosoma mansoni. Particulars: for eggs' number: 20 μM. On the procedure: Selected compounds 2, 15, 18, and 19 were tested on adult worms to evaluate their effects on pairing and egg laying.
In data set [9] the test system is S. mansoni juvenile forms. The data set is described as follows: Speed-of-action assay in juvenile forms. The format is cell-based, Schistosoma mansoni. Particulars: for IC50: Schistosoma mansoni, read-out: IC50 (speed of action, juvenile forms); for Percentage of effect: juvenile forms.
Excerpt: as §3

The mark [10] stands for this setting: 5 μM, read-out: percentage of viability, 72 h.
The mark [11] stands for this setting: 10 μM, read-out: percentage of viability, 72 h.
Setting [12] is: 25 μM, read-out: percentage of viability, 72 h.
The mark [13] stands for this setting: 50 μM, read-out: percentage of viability, 72 h.
[14] abbreviates: read-out: IC50 (cell viability).

Structures can show the parent of a compound that is named as a salt. Where two headings read alike, the source gives them in different places. Some results are limits rather than exact numbers.

By IC50 is commonly meant the concentration needed to halve the response being measured. Broadly, the viability is a read-out of living cells in per cent, often relative to untreated cells.

Regarding `Cc1ccc(C(=O)Nc2ccc(C3CC3N)cc2)cc1.Cl` (centres unmarked) [Compound 14, N-(4-(2-Aminocyclopropyl)phenyl)-4-methylbenzamide Hydrochloride], the “Percentage of reduction of NTS viability, 72 h” value (shortened to “Percentage of reduction … 72 h”) was determined as 22.9 ± 2.1% in [1] (10 μM) and 41.7 ± 4.2% in data set [1] (20 μM). Besides, the IC50 in [1] was above 20 µM; in [2], 150 ± 20 nM. Moreover, in [3], the ΔTm result is “+8 °C”.

With `N#Cc1ccc(C(=O)Nc2ccc(C3CC3N)cc2)cc1` (centres unmarked) [Compound 17, N-(4-(2-Aminocyclopropyl)phenyl)-4-cyanobenzamide Hydrochloride], the figures for the “Percentage of reduction … 72 h” value in [1] (10 μM) and in data set [1] (20 μM) were 25.0 ± 0.0% and 31.2 ± 6.3%, respectively. The half-maximal inhibitory concentration (IC50) in [1] was above 20 µM; in [2] it was 150 ± 20 nM. Moreover, the ΔTm result in [3] is “+8.5 °C”.

`CCCc1ccc(C(=O)Nc2ccc(C3CC3N)cc2)cc1.Cl` (centres unmarked) [Compound 15, N-(4-(2-Aminocyclopropyl)phenyl)-4-propylbenzamide Hydrochloride]: the viability at 72 h, 5 µM in [4] (setting [10]) is 81 ± 16%; in data set [5] (setting [10]), 89 ± 3%. The viability at 72 h, 10 µM was 91 ± 20% in data set [4] (setting [11]) and 104 ± 12% in data set [5] (setting [11]). Besides, the viability at 72 h, 25 µM in data set [4] (setting [12]) came out at 89 ± 17%; in data set [5] (setting [12]) it was 99 ± 6%. Besides, the viability at 72 h, 50 µM in data set [4] (setting [13]) amounted to 92 ± 20%; in data set [5] (setting [13]), 106 ± 17%. In addition, the 50% inhibitory concentration (IC50) at 72 h in [4] (setting [14]) and in data set [5] (setting [14]) was above 100 µM each time. For the same molecule, the IC50 in data set [6] is above 10 µM; in data set [1], 1.72 µM; in data set [7] (4 h), above 20 µM; in [7] (24 h), 10 µM; in data set [7] (48 h), 9.9 µM; in data set [7] (72 h) it was 9.3 µM. Also, the IC50 is 120 ± 20 nM in [2]; above 20 µM in data set [9] (4 h); above 20 µM in [9] (24 h); above 20 µM in [9] (48 h); 4.3 µM in data set [9] (72 h). For the same molecule, the figures for the “Percentage of reduction … 72 h” value in [1] (1 μM), in [1] (10 μM) and in data set [1] (20 μM) were 30.2 ± 1.9%, 87.5 ± 4.2% and 100 ± 0.0%, respectively. Besides, the Percentage of effect in [7] (4 h, 10 μM) was determined as 21.15%; in data set [7] (4 h, 20 μM) it was 38.46%; in data set [7] (24 h, 10 μM) it was 50%; in [7] (24 h, 20 μM), 57.14%; in data set [7] (48 h, 10 μM), 51.02%; in data set [7] (48 h, 20 μM), 91.84%. The Percentage of effect was 71.43% in data set [7] (72 h, 10 μM); 100% in data set [7] (72 h, 20 μM); 23.33% in data set [9] (4 h, 1 μM); 33.33% in data set [9] (4 h, 10 μM); 45.45% in [9] (4 h, 20 μM); 24.14% in data set [9] (24 h, 1 μM). For the same molecule, the Percentage of effect was 34.48% in data set [9] (24 h, 10 μM); 48.08% in [9] (24 h, 20 μM); 34.62% in data set [9] (48 h, 1 μM); 42.31% in data set [9] (48 h, 10 μM); 50% in [9] (48 h, 20 μM); 40.96% in data set [9] (72 h, 1 μM). The Percentage of effect in data set [9] (72 h, 10 μM) is on record as 44.55%; in [9] (72 h, 20 μM), 70.83%. In addition, the “eggs' number” value in data set [8] (4 h) is listed as 0; in data set [8] (8 h), 0; in data set [8] (24 h), 0; in [8] (48 h), 0; in [8] (72 h) it was 8. Further, the “effect on worm pairing” value in [8] (adult worms) is “no impact on worm pairing”. In data set [3], the ΔTm entry is “+9.5 °C”.

`C#Cc1cccc(C(=O)Nc2ccc(C3CC3N)cc2)c1.Cl` (centres unmarked) [Compound 16, N-(4-(2-Aminocyclopropyl)phenyl)-3-ethynylbenzamide Hydrochloride]: the figures for the IC50 in [6], in data set [1] and in data set [2] were above 20 µM, above 10 µM and 70 ± 20 nM, respectively. Moreover, the entries for the “Percentage of reduction … 72 h” value in data set [1] (10 μM) and in data set [1] (20 μM) were 31.2 ± 6.3% and 77.8 ± 2.1%, respectively. Moreover, the ΔTm entry in data set [3] is “+10 °C”.

Turning to `Cl.NC1CC1c1ccc(NC(=O)c2ccc(C#Cc3ccccc3)cc2)cc1` (centres unmarked) [Compound 20, N-(4-(2-Aminocyclopropyl)phenyl)-4-(phenylethynyl)benzamide Hydrochloride], the values for the 50% inhibitory concentration (IC50) in data set [6], in data set [1] and in data set [2] were above 20 µM, above 10 µM and 4020 ± 410 nM, respectively. Moreover, the “Percentage of reduction … 72 h” value in [1] (10 μM) came to 29.2 ± 0.0%; in data set [1] (20 μM), 77.8 ± 2.1%. Besides, the “IC50 (hLSD1 direct inhibition)” value in data set [2] is reported as “single-digit μM inhibition”. Besides, the ΔTm result in [3] was “+8 °C”.

Source of the values: PMC12340956, “Tranylcypromine-Based LSD1 Inhibitors as Useful Agents to Reduce Viability of” (ACS Infectious Diseases, 2025).
